Measured values from article PMC11547093, “Novel Phenoxyalkanoic Acid Derivatives as Free Fatty Acid Receptor 4 Agonists for Treating Type 2 Diabetes Mellitus” (International Journal of Molecular Sciences, 2024).
One block for each molecule: values may come before it.

What was measured:
normal ICR mice = experiment: oral glucose tolerance test in normal ICR mice; conditions: 20 mg/kg by gavage 30 min before glucose 2 g/kg, AUC 0-120 min
Procedure: Compounds (20 mg/kg) or the vehicle was administered by gavage 30 min before glucose administration (2 g/kg). […] The test compounds were dissolved in 0.5% methyl cellulose (MC) and vortexed before the study initiation. […] The exact dose volume was calculated separately for each animal. […] Blood glucose levels were measured using blood glucose test strips (Sannuo GA-3 type; Changsha, China).

human FFAR1 = biological target: T1, human FFAR1 (Homo sapiens, UniProt O14842); experiment: calcium influx assay, hFFAR1 (hGPR40) agonistic activity in transfected CHO cells; assay type: cell-based
T1 construct: expressed in transfected cells; host or cells: CHO cells
T1 sequence (O14842 whole entry): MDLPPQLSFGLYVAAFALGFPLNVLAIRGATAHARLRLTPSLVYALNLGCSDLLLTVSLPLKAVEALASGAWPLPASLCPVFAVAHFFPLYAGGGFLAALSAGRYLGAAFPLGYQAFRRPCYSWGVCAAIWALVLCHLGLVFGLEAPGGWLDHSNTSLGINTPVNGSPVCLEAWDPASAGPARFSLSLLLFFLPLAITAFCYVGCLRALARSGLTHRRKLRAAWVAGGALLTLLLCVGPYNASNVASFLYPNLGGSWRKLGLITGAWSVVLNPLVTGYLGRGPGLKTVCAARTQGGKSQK

DIO mice = experiment: anti-hyperglycemic effects (OGTT, insulin) in diet-induced obese (DIO) mice; assay type: in vivo, C57BL/6 mice; conditions: for reduction of blood glucose AUC versus vehicle-treated group: AUC -30 to 120 min
Procedure: During the experimental period, plasma insulin levels were measured 30 min after glucose administration using an insulin ELISA Kit.
Plasma insulin levels were measured using a mouse insulin RIA kit 30 min after oral glucose loading (Beijing North Institute of Biological Technology, Beijing, China).

[1] = pharmacokinetic study in ICR mice; assay type: in vivo; conditions: oral 10 mg/kg
Procedure: The AUC was calculated using the trapezoidal method.
Plasma was collected and precipitated using two volumes of acetonitrile containing an internal standard. This step was followed by centrifugation at 15.680 g for 10 min after vortexing for 5 min. The supernatant was diluted with acetonitrile, and 10 µL of the supernatant was analyzed by Waters LC-PDA-MS/MS to determine plasma drug levels. Pharmacokinetic parameters were determined using mean data from four mice at each time point. Statistical analysis of the data was performed using the DAS 2.1.1 statistical software program (BioVoice, Shanghai, China).

human FFAR4 = biological target: T2, human FFAR4 (Homo sapiens, UniProt Q5NUL3); experiment: cell-based
T2 sequence (Q5NUL3 1-361): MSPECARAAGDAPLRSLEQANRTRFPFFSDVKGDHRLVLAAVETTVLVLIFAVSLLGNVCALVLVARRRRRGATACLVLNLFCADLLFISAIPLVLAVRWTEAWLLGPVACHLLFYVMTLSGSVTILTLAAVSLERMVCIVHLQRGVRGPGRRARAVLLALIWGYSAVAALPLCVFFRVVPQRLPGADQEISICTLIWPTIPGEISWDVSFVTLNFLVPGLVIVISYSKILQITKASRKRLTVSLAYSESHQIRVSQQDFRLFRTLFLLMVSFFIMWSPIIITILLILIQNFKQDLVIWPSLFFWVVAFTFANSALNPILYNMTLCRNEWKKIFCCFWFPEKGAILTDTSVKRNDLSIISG

EC50 (human FFAR4): 0.113 µM
Compound: Cc1ccc(-c2ccc(F)cc2NC(=O)c2ccc(OCCCC(=O)O)c(C)c2)cc1 [Compound 5f, 4-(4-((4-fluoro-4′-methyl-[1,1′-biphenyl]-2-yl)carbamoyl)-2-methylphenoxy)butanoic acid]
reduction of blood glucose AUC versus vehicle-treated group (normal ICR mice): 16.7%

EC50 (human FFAR4): 0.218 µM
Compound: Cc1ccc(-c2ccc(F)cc2NC(=O)c2ccc(OCCCCC(=O)O)c(C)c2)cc1 [Compound 6f, 5-(4-((4-fluoro-4′-methyl-[1,1′-biphenyl]-2-yl)carbamoyl)-2-methylphenoxy)pentanoic acid]

EC50 (human FFAR4): 0.127 µM
Compound: Cc1ccc(-c2ccc(F)cc2NC(=O)c2ccc(OCCCCC(=O)O)c(F)c2)cc1 [Compound 12f, 5-(2-fluoro-4-((4-fluoro-4′-methyl-[1,1′-biphenyl]-2-yl)carbamoyl)phenoxy)pentanoic acid]

EC50 (human FFAR4): 0.145 µM
Compound: Cc1ccc(-c2ccc(F)cc2NC(=O)c2ccc(OCC(=O)O)c(C)c2)cc1 [Compound 4f, 2-(4-((4-fluoro-4′-methyl-[1,1′-biphenyl]-2-yl)carbamoyl)-2-methylphenoxy)acetic acid]

EC50 (human FFAR4): 0.246 µM
Compound: Cc1ccc(-c2ccc(F)cc2NC(=O)c2ccc(OCCCC(=O)O)cc2C)cc1 [Compound 8f, 4-(4-((4-fluoro-4′-methyl-[1,1′-biphenyl]-2-yl)carbamoyl)-3-methylphenoxy)butanoic acid]

EC50 (human FFAR4): 0.0932 µM
Compound: Cc1ccc(-c2ccc(F)cc2NC(=O)c2ccc(OCCCC(=O)O)c(F)c2)cc1 [Compound 11f, 4-(2-fluoro-4-((4-fluoro-4′-methyl-[1,1′-biphenyl]-2-yl)carbamoyl)phenoxy)butanoic acid]
reduction of blood glucose AUC versus vehicle-treated group (normal ICR mice): 20.0%

EC50 (human FFAR4): 0.189 µM
Compound: Cc1ccc(-c2ccc(F)cc2NC(=O)c2ccc(OCCCC(=O)O)cc2)cc1 [Compound 2f, 4-(4-((4-fluoro-4′-methyl-[1,1′-biphenyl]-2-yl)carbamoyl)phenoxy)butanoic acid]

Second part, the molecule before the results:

Compound: Cc1ccc(-c2ccc(F)cc2NC(=O)c2ccc(OCC(=O)O)c(F)c2)cc1 [Compound 10f, 2-(2-fluoro-4-((4-fluoro-4′-methyl-[1,1′-biphenyl]-2-yl)carbamoyl)phenoxy)acetic acid]
reduction of blood glucose AUC versus vehicle-treated group (normal ICR mice): 30.8%
potency in stimulating FFAR4 over FFAR1 (selectivity) (human FFAR1; FFAR4 versus FFAR1): approximately 400 fold
EC50 (human FFAR1; human FFAR1 transfected CHO cells, calcium influx): 32.9 µM
reduction of blood glucose AUC versus vehicle-treated group (DIO mice; 30 mg/kg oral 30 min before glucose 2 g/kg): 20.1%
reduction of blood glucose AUC versus vehicle-treated group (DIO mice; 100 mg/kg oral 30 min before glucose 2 g/kg): 32.4%
hypoglycemic effect (DIO mice; doses exceeding 10 mg/kg oral): significant hypoglycemic activity
plasma insulin level versus control group (DIO mice; doses greater than 10 mg/kg, 30 min after glucose administration): significantly higher
hypoglycemia during the experiment (DIO mice; doses up to 100 mg/kg oral): no hypoglycemia was observed
hypoglycemic effect (DIO mice; lower doses 1 mg/kg and 3 mg/kg oral): did not exhibit significant hypoglycemic effects
Tmax ([1]; male, mouse, plasma): 0.5 h
AUC ([1]; male, mouse, plasma, 0 to 24 h, mean ± SD of four mice): 9830 ± 2930 ng·h/mL
Cmax ([1]; male, mouse, plasma, 0.5% methyl cellulose, mean ± SD of four mice): 3140 ± 1150 ng/mL
half-life ([1]; male, mouse, plasma, mean ± SD of four mice): 1.51 ± 0.51 h
Cmax relative to TUG-891 [1]: 2.5 times
EC50 (human FFAR4): 0.0786 µM

Compound: Cc1ccc(-c2ccc(F)cc2NC(=O)c2ccc(OCC(=O)O)cc2C)cc1 [Compound 7f, 2-(4-((4-fluoro-4′-methyl-[1,1′-biphenyl]-2-yl)carbamoyl)-3-methylphenoxy)acetic acid]
EC50 (human FFAR4): 0.189 µM

Compound: Cc1ccc(-c2ccc(F)cc2NC(=O)c2ccc(OCC(=O)O)cc2)cc1 [Compound 1f, 2-(4-((4-fluoro-4′-methyl-[1,1′-biphenyl]-2-yl)carbamoyl)phenoxy)acetic acid]
EC50 (human FFAR4): 0.136 µM

Compound: Cc1ccc(-c2ccc(F)cc2NC(=O)c2ccc(OCCCCC(=O)O)cc2)cc1 [Compound 3f, 5-(4-((4-fluoro-4′-methyl-[1,1′-biphenyl]-2-yl)carbamoyl)phenoxy)pentanoic acid]
EC50 (human FFAR4): 0.236 µM

Compound: Cc1ccc(-c2ccc(F)cc2NC(=O)c2ccc(OCCCCC(=O)O)cc2C)cc1 [Compound 9f, 5-(4-((4-fluoro-4′-methyl-[1,1′-biphenyl]-2-yl)carbamoyl)-3-methylphenoxy)pentanoic acid]
EC50 (human FFAR4): 0.279 µM
